Results published in paper PMC8338929, “Acetylation turns leucine into a drug by membrane transporter switching” (Scientific Reports, 2021).

Experiments:
Format in all cases: cell-based
Human OAT1 (SLC22A6) [1] = molecular target: T1, Human OAT1 (SLC22A6) (Homo sapiens, UniProt Q4U2R8); assay: OAT1-mediated cellular uptake in overexpressing HEK-293 cells
T1 construct: host or cells: HEK-293
T1 sequence (Q4U2R8 1-563): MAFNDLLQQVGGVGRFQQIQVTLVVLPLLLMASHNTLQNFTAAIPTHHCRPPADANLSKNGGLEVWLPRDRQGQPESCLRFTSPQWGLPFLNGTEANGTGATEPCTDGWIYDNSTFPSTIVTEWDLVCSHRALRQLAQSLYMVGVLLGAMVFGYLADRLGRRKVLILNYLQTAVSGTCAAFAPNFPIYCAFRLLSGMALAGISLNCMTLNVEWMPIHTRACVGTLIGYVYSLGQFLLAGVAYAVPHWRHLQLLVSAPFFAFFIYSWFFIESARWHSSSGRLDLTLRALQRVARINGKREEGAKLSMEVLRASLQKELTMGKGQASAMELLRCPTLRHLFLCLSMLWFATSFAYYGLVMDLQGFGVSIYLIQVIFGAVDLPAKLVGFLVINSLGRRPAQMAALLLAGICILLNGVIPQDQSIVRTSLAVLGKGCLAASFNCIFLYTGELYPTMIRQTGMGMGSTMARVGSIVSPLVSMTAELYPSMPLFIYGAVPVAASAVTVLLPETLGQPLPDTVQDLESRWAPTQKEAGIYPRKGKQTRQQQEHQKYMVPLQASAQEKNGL
Description: (§1) Cells were grown in DMEM (Gibco 4196, high glucose, without sodium pyruvate) supplemented with MEM non-essential amino acids and 10% fetal bovine serum. Cells were re-fed with fresh medium after attachment (4–6 h post-seeding). Cell were plated at a density of 4 × 10^5/well in 24-well plates coated with poly-D-lysine. Transporter assays were conducted in 400 µL of HBSS supplemented with 10 mM Hepes, pH 7.4
(§2) The known probe substrates used as positive controls were 3 μM chlorothiazide for OAT1, 2 μM estrone-3-sulfate for OAT3, 10 µM [^3H]gabapentin for LAT1, 50 µM [^3H]Gly-Sar for PepT1, 500 µM thiophene-2-glyoxylic acid for MCT1. The known inhibitors used as controls for each transporter were 100 μM diclofenac for OAT1 and OAT3, 10 µM JPH203 for LAT1 and 200 µM losartan for PepT1. All incubations were in triplicate and contained 1% (OAT1 and OAT3) or 0.5% DMSO (LAT, PepT1 and MCT1). The duration of uptake was 5 min for OAT1 and OAT3, 3 min for LAT1 and PepT1 and 1 min for MCT1. Assays were performed at 37 °C with no shaking, except MCT1 at room temperature. To determine uptake due to the overexpressed transporter per se, uptake was taken as the difference between accumulation between transfected and nontransfected cells in parallel experiments at the same concentration and time. To terminate uptake the plate was placed on ice and cells washed twice with ice-cold transport buffer. […]

Human OAT1 (SLC22A6) [2] = molecular target: T1, Human OAT1 (SLC22A6); assay: Inhibition of OAT1 uptake of probe substrate chlorothiazide in HEK-293 cells; details: probe chlorothiazide 3 µM; positive control diclofenac 100 µM
Description: as §1
(§3) The known probe substrates used as positive controls were 3 μM chlorothiazide for OAT1, 2 μM estrone-3-sulfate for OAT3, 10 µM [^3H]gabapentin for LAT1, 50 µM [^3H]Gly-Sar for PepT1, 500 µM thiophene-2-glyoxylic acid for MCT1. The known inhibitors used as controls for each transporter were 100 μM diclofenac for OAT1 and OAT3, 10 µM JPH203 for LAT1 and 200 µM losartan for PepT1. All incubations were in triplicate and contained 1% (OAT1 and OAT3) or 0.5% DMSO (LAT, PepT1 and MCT1). […]
(§4) [I] is the inhibitor concentration and IC50 is the inhibitor concentration where the remaining activity is at the midpoint between the Top and Bottom. […] In inhibition experiments, the IC50 is not equivalent to affinity because it is dependent on the concentrations of the substrate, the inhibitor and affinity; therefore, we assumed competitive inhibition, and calculated affinity of inhibition (Ki) with the Cheng-Prusoff equation[49].

Human OAT3 (SLC22A8) [3] = molecular target: T2, Human OAT3 (SLC22A8) (Homo sapiens, UniProt Q8TCC7); assay: OAT3-mediated cellular uptake in overexpressing HEK-293 cells
T2 construct: host or cells: HEK-293
T2 sequence (Q8TCC7 1-542): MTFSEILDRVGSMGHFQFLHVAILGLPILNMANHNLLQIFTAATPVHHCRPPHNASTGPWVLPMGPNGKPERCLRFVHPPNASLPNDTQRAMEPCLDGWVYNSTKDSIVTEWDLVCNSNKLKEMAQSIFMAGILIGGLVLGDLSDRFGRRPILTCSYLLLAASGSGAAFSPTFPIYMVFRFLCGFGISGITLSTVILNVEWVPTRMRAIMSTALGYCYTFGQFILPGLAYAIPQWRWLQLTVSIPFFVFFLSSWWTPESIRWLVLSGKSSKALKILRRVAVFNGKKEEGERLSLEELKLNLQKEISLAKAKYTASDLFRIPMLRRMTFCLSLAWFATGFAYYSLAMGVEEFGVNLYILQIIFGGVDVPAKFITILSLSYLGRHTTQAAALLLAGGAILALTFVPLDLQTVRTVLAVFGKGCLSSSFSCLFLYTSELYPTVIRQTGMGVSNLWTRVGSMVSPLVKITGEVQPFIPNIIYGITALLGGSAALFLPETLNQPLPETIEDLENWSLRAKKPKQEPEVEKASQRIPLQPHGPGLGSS
Description: as §1, §2

Human OAT3 (SLC22A8) [4] = molecular target: T2, Human OAT3 (SLC22A8); assay: Inhibition of OAT3 uptake of probe substrate estrone-3-sulfate in HEK-293 cells; details: probe estrone-3-sulfate 2 µM; positive control diclofenac 100 µM
Description: as §1, §3, §4

SMILES: CC(=O)N[C@@H](CC(C)C)C(=O)O [N-acetyl-L-leucine]
- Vmax OAT1 uptake (Human OAT1 (SLC22A6) [1]; Michaelis-Menten fit): 173
- substrate of OAT1 (uptake) (Human OAT1 (SLC22A6) [1]; pH 7.4, 5 min): substrate
- IC50 (Human OAT1 (SLC22A6) [2]): 6.2 mM
- Vmax OAT3 uptake (Human OAT3 (SLC22A8) [3]; Michaelis-Menten fit): 138
- substrate of OAT3 (uptake) (Human OAT3 (SLC22A8) [3]; pH 7.4, 5 min): substrate
- IC50 (Human OAT3 (SLC22A8) [4]): 0.7 mM
